8 compounds from patent US7112677B2, “1H-imidazo dimers” (3M Innovative Properties Company, priority 2002, dated 2006) can be followed below.

What is called melting point is the temperature of the solid-liquid transition.

Series [1] has as its system tumor necrosis factor (α). Kind of series: Cytokine Induction in Human Cells: tumor necrosis factor (α) by ELISA or IGEN Assay. In kind it is cell-based. Conditions: human PBMC, incubated 18 to 24 hours, tested at 30–0.014 μM; induction at ≦10 μM. The text has this: (§1) An in vitro human blood cell system is used to assess cytokine induction. Activity is based on the measurement of interferon and tumor necrosis factor (α) (IFN and TNF, respectively) secreted into culture media as described by Testerman et. al. In “Cytokine Induction by the Immunomodulators Imiquimod and S-27609”, Journal of Leukocyte Biology, 58, 365–372 (September, 1995).
(§2) Whole blood from healthy human donors is collected by venipuncture into EDTA vacutainer tubes. Peripheral blood mononuclear cells (PBMC) are separated from whole blood by density gradient centrifugation using Histopaque®-1077. Blood is diluted 1:1 with Dulbecco's Phosphate Buffered Saline (DPBS) or Hank's Balanced Salts Solution (HBSS). The PBMC layer is collected and washed twice with DPBS or HBSS and resuspended at 4×10^6 cells/mL in RPMI complete. The PBMC suspension is added to 48 well flat bottom sterile tissue culture plates (Costar, Cambridge, Mass. or Becton Dickinson Labware, Lincoln Park, N.J.) containing an equal volume of RPMI complete media containing test compound.
(§3) The compounds are solubilized in dimethyl sulfoxide (DMSO). The DMSO concentration should not exceed a final concentration of 1% for addition to the culture wells. The compounds are generally tested at concentrations ranging from 30–0.014 μM.
(§4) The solution of test compound is added at 60 μM to the first well containing RPMI complete and serial 3 fold dilutions are made in the wells. The PBMC suspension is then added to the wells in an equal volume, bringing the test compound concentrations to the desired range (30–0.014 μM). The final concentration of PBMC suspension is 2×10^6 cells/mL. The plates are covered with sterile plastic lids, mixed gently and then incubated for 18 to 24 hours at 37° C. in a 5% carbon dioxide atmosphere.
(§5) Following incubation the plates are centrifuged for 10 minutes at 1000 rpm (˜200×g) at 4° C. The cell-free culture supernatant is removed with a sterile polypropylene pipet and transferred to sterile polypropylene tubes. Samples are maintained at −30 to −70° C. until analysis. The samples are analyzed for interferon (a) by ELISA and for tumor necrosis factor (α) by ELISA or IGEN Assay.
Tumor necrosis factor (α) (TNF-α) concentration is determined using ELISA kits available from Biosource International, Camarillo, Calif. Alternately, the TNF-α concentration can be determined by Origen® M-Series Immunoassay and read on an IGEN M-8 analyzer from IGEN International, Gaithersburg, Md. The immunoassay uses a human TNF-α capture and detection antibody pair from Biosource International, Camarillo, Calif. Results are expressed in pg/mL.

Another series relates to interferon (α). The series is described as follows: Cytokine Induction in Human Cells: interferon (α) by ELISA. The format is cell-based. Conditions: human PBMC, incubated 18 to 24 hours, tested at 30–0.014 μM; induction at ≦10 μM.
Source text: as §1, §2, §3, §4, §5
Interferon (α) concentration is determined by ELISA using a Human Multi-Species kit from PBL Biomedical Laboratories, New Brunswick, N.J. Results are expressed in pg/mL.
Background: ELISA stands for enzyme-linked immunosorbent assay.

The nature of series [2]: Solubility in DMSO for testing. The format is physicochemical. Details: key: *: the compound was not adequately soluble in DMSO to permit testing. The conditions noted are these: printed as * in the cytokine columns. As to the method:
as §3
Compounds of the invention were tested for their ability to induce cytokine biosynthesis using the method described above.

Each structure is given as a SMILES string.

For `COCCc1nc2c(N)nc3ccccc3c2n1CCOCCNC(=O)NCCCCCCCCNC(=O)NCCOCCn1c(CCOC)nc2c(N)nc3ccccc3c21` [Example 7, N,N″-1,8-octanediylbis[N′-(2-{2-[4-amino-2-(methoxyethyl)-1H-imidazo[4,5-c]quinolin-1-yl]ethoxy}ethyl)urea]], the melting point is 172.5 to 177 °C. In series [1], the “Tumor Necrosis Factor (α)” value is “+ (at concentrations of ≦10 μM the compound induced the indicated cytokine)”. The “Interferon (α)” value in the series with interferon (α) is “+ (at concentrations of ≦10 μM the compound induced the indicated cytokine)”.
`CCCCc1nc2c(N)nc3ccccc3c2n1CCCCNC(=O)Nc1cccc(NC(=O)NCCCCn2c(CCCC)nc3c(N)nc4ccccc4c32)c1` [Example 2, N,N″-1,3-phenylenebis{N′-[4-(4-amino-2-butyl-1H-imidazo[4,5-c]quinolin-1-yl)butyl]urea}] had a melting point of 160.3 to 165.6 °C. The “Tumor Necrosis Factor (α)” value in series [1] is listed as “+ (at concentrations of ≦10 μM the compound induced the indicated cytokine)”. For the same compound, the “Interferon (α)” value with interferon (α) is “+ (at concentrations of ≦10 μM the compound induced the indicated cytokine)”.
With `CCCCc1nc2c(N)nc3ccccc3c2n1CCCCNC(=O)NCCCCn1c(CCCC)nc2c(N)nc3ccccc3c21` [Example 1, N,N′-bis[4-(4-amino-2-butyl-1H-imidazo[4,5-c]quinolin-1-yl)butyl]urea], the melting point fell in the range of 218.1 to 219.7 °C. In series [1], the “Tumor Necrosis Factor (α)” value is “+ (at concentrations of ≦10 μM the compound induced the indicated cytokine)”. Besides, the “Interferon (α)” value with interferon (α) is given as “+ (at concentrations of ≦10 μM the compound induced the indicated cytokine)”.
As to `CCOCc1nc2c(N)nc3ccccc3c2n1CCCCCCCCCCn1c(COCC)nc2c(N)nc3ccccc3c21` [Example 8, 1-[10-(4-amino-2-ethoxymethyl-1H-imidazo[4,5-c]quinolin-1-yl)decyl]-2-ethoxymethyl-1H-imidazo[4,5-c]quinoline-4-amine], the melting point was in the range of 237 to 238 °C. Moreover, in series [2], the “adequately soluble in DMSO to permit testing” value was “*”.
For the compound `CCCCc1nc2c(N)nc3ccccc3c2n1CCCCNC(=O)N[C@H]1CC[C@H](NC(=O)NCCCCn2c(CCCC)nc3c(N)nc4ccccc4c32)CC1` [Example 4, N,N″-trans-1,4-cyclohexylenebis{N′-[4-(4-amino-2-butyl-1H-imidazo[4,5-c]quinolin-1-yl)butyl]urea}], the melting point fell in the range of 184.5 to 188.8 °C. Moreover, the “Tumor Necrosis Factor (α)” value in series [1] was “+ (at concentrations of ≦10 μM the compound induced the indicated cytokine)”. Also, the “Interferon (α)” value in the series on interferon (α) is “+ (at concentrations of ≦10 μM the compound induced the indicated cytokine)”.
Regarding `COCCc1nc2c(N)nc3ccccc3c2n1CCOCCNS(=O)(=O)c1cccc(S(=O)(=O)NCCOCCn2c(CCOC)nc3c(N)nc4ccccc4c32)c1` [Example 5, N,N-bis(2-{2-[4-amino-2-(2-methoxyethyl)-1H-imidazo[4,5-c]quinolin-1-yl]ethoxy}ethyl)benzene-1,3-disulfonamide], the melting point lay within 115 to 120 °C. The “Tumor Necrosis Factor (α)” value in series [1] is on record as “+ (at concentrations of ≦10 μM the compound induced the indicated cytokine)”. Further, in the series on interferon (α), the “Interferon (α)” value is given as “+ (at concentrations of ≦10 μM the compound induced the indicated cytokine)”.
`CCCCc1nc2c(N)nc3ccccc3c2n1CCCCNC(=O)Nc1ccc(Oc2ccc(NC(=O)NCCCCn3c(CCCC)nc4c(N)nc5ccccc5c43)cc2)cc1` [Example 3, N-[4-(4-amino-2-butyl-1H-imidazo[4,5-c]quinolin-1-yl)butyl]-N′-(4-{4-[({[4-(4-amino-2-butyl-1H-imidazo[4,5-c]quinolin-1-yl)butyl]amino}carbonyl)amino]phenoxy}phenyl)urea] showed a melting point of 152.1 to 156.1 °C. In series [1], the “Tumor Necrosis Factor (α)” value is recorded as “+ (at concentrations of ≦10 μM the compound induced the indicated cytokine)”. Moreover, the “Interferon (α)” value in the series with interferon (α) is “+ (at concentrations of ≦10 μM the compound induced the indicated cytokine)”.
For `COCCc1nc2c(N)nc3ccccc3c2n1CCOCCNC(=O)c1ccc(C(=O)NCCOCCn2c(CCOC)nc3c(N)nc4ccccc4c32)cc1` [Example 6, N,N′-bis(2-{2-[4-amino-2-(2-methoxyethyl)-1H-imidazo[4,5-c]quinolin-1-yl]ethoxy}ethyl)terephthalamide], in series [1], the “Tumor Necrosis Factor (α)” value was “+ (at concentrations of ≦10 μM the compound induced the indicated cytokine)”. Also, the “Interferon (α)” value in the series with interferon (α) is “+ (at concentrations of ≦10 μM the compound induced the indicated cytokine)”.
